From patent US11505581B2, “Antigens and T cell epitopes from cockroach and methods of making and using same” (La Jolla Institute for Allergy and Immunology, priority 2015, dated 2022)

Tested on: PBMC
Assay: ELISPOT (IFNγ, IL-5, IL-10, IL-17, IL-21) of PBMC expanded 14 days with Bla g extract, then stimulated with peptides or peptide pools
Type: cell-based, human
Design: key to Average Magnitude of Response: spot forming cells (SFC) per 10^6 PBMC; Response Rate per Subject: unit not given here
Settings: non-redundant epitopes; sensitized donors
Description: PBMC Isolation and Cell Cultures: PBMC (peripheral blood mononuclear cells) were isolated from 450 mL (one unit) of blood by density gradient centrifugation as described and cryopreserved. For in vitro expansion of PBMC for peptide screening, cells were cultured in RPMI1640 (Omega Scientific)+5% human AB serum (Gemini Bioscience), GlutaMAX (Gibco), and penicillin/streptomycin (Omega Scientific) at 2×10^6 per mL, stimulated with 10 ug/mL Bla g extract (Greer), and incubated at 37° C. in 5% CO2. Every three days, IL-2 and IL-7 (10 U/mL) were added to the cultures. Cells were harvested for peptide screening at day 14.
ELISPOT Assays: Production of IFNγ, IL-5, IL-17, IL-10, and IL-21 (as representative of TH1, TH2, TH17, TR1, and […], respectively) in response to peptide stimulation was measured by ELISPOT as described previously. […] In brief, 1×10^5 cells per well were incubated with peptide, peptide pool, or Bla g extract (10, 5, and 10 ug/ml, respectively) on anti-lymphokine antibody coated ELISPOT plates (Millipore #MSIPS4510) for 22 hours. Subsequently, secondary anti-lymphokine antibodies were added and incubated for 2 hours, washed, and avidin-peroxidase complex added for 1 hour. Plates were washed and spots developed with 3-amino-9-ethylcarbazole (Sigma #A6926) and Vector Blue (Vector #SK-5300) for IFNγ/IL-5 and IL-10/IL-17 dual plates or TMB (Sigma #T0565) for single IL-21. Criteria for peptide pool positivity were at least 100 spot forming cells (SFC) per 10^6 PBMC, p<0.05, and stimulation index≥2. Criteria for peptide positivity were identical except with a threshold of 20 SFCs.
We synthetized overlapping peptide sets of 15 amino acids in length overlapping by 10 residues and covering the entire sequence of known Bla g Allergens, i.e. Bla g 1-7, 9 and 11, referred from hereafter collectively as BLAGA. A total of 809 BLAGA peptides were arranged in pools, encompassing on average 20 peptides.
To assess T cell reactivity, we utilized a strategy applied to the definition of epitopes from various allergen sources^15,16 utilizing in vitro stimulation with allergen extracts. Here, PBMC from each subject were stimulated in vitro with Bla g extract. After 14 days, pools of overlapping 15-mer peptides from the BLAGA were tested for responses, and positive pools deconvoluted to identify the specific epitopes. As readout, we utilized ELISPOT assays specific for IL-5, IFNγ, IL-10, IL-17 and IL-21, chosen as representative of TH2, TH1, TR1, TH17 and TFH reactivity, respectively.

Row | Sequence | Average Magnitude of Response | Response Rate per Subject
1 | AAIANYHYDADENSK | 26.2 | 11.4
2 | AAVAYLQSDEFETIV | 3.2 | 1.4
3 | AGTWSALNSIQQFIS | 15.7 | 7.1
4 | AKGMMHMIKKGANGS | 18.7 | 2.9
5 | AKRFAKWALPLYNKP | 12.2 | 1.4
6 | ALNSIQQFISSEMVE | 4.4 | 4.3
7 | ALREKVLGLPAIKAW (listed as Blattella germanica) | 77.1 | 12.9
8 | AQIQVVIHLDEQYIY | 4.6 | 5.7
9 | ARYFLERLSNDLPDV | 3.5 | 2.9
10 | ATDYENYAIVEGCPA | 32.7 | 1.4
11 | AVLALCATDTLANED | 3.0 | 2.9
12 | CATDTLANEDCFRHE | 3.2 | 2.9
13 | CPTNLGTTVRASVRI | 11.2 | 4.3
14 | DCGVAGFRVDAAKHM | 3.9 | 2.9
15 | DENSKQKKWDPLKKE | 10.3 | 5.7
16 | DKKVYRVFESTVTGR | 4.4 | 2.9
17 | DPSIHVLKMVAELTH | 3.4 | 1.4
18 | DRKMYWQFKMDKIQI (listed as Blattella germanica) | 78.8 | 5.7
19 | DRRGEMFYYTRQQLY | 3.5 | 1.4
20 | DVLDIGGLKVQKQTF | 3.5 | 2.9
21 | DVLQWQTIPYTTIHN | 15.9 | 2.9

Row | Sequence | Average Magnitude of Response | Response Rate per Subject
22 | EAGFAKLAASDSKSL | 16.0 | 7.1
23 | EIDGKQTHQSVAISR | 3.8 | 4.3
24 | EMIQHYTLDQVNQHK | 3.5 | 2.9
25 | ERYQLVSYNLNSRSG | 3.4 | 1.4
26 | EVVKANGGYLAAGKL | 4.6 | 5.7
27 | FGSTLLDVIQSGLEN | 26.1 | 8.6
28 | FLLSYGEKDFEDYRF | 8.5 | 8.6
29 | FQINLDFKNHNGFIR | 52.0 | 1.4
30 | FRKFSNNFEFSYLLG | 3.3 | 1.4
31 | FRPWWERYQLVSYNL | 10.8 | 4.3
32 | FSQMYHAQLAFSTAF | 3.4 | 2.9
33 | FYTEFDMENNRVGFA | 11.3 | 2.9
34 | GASILTYKTSKLYKM | 19.3 | 7.1
35 | GEKDFEDYRFQEGDW | 12.0 | 8.6
36 | GEPIRFLLSYGEKDF | 3.3 | 2.9
37 | GHSHFVSDVVLSSDG | 9.6 | 2.9
38 | GIRIYVDVVLNQMSG (listed as Blattella germanica) | 62.5 | 4.3
39 | GKDYILRVSQLGHTV | 3.4 | 4.3
40 | GQEYTFYVIVTPYAK | 3.2 | 2.9
41 | GVTPVFYNMVKQGLV | 20.8 | 1.4
42 | HDDRLGFLTFCPTNL (listed as Blattella germanica) | 83.1 | 7.1

Row | Sequence | Average Magnitude of Response | Response Rate per Subject
43 | HGRTFSSLFQVANQY | 8.4 | 4.3
44 | HHQRLFMVQSLERVV | 3.1 | 2.9
45 | HMAKEDLVANQPNLK (listed as Blattella germanica) | 68.8 | 4.3
46 | HTKLSSSSSITLTLP | 6.2 | 5.7
47 | HYQFDSIHKFEFASK | 24.4 | 1.4
48 | IAGPVSEVTALNRQI | 3.3 | 2.9
49 | IDDIIAILPVDDLYA | 6.6 | 2.9
50 | IHENLIVTSPFRPWW | 9.3 | 2.9
51 | IQGKFGLDATAVGDE | 6.9 | 1.4
52 | IRFSVRRFHPKLGDK | 5.8 | 2.9
53 | IRGRTKFEGNKFTID (listed as Blattella germanica) | 75.5 | 5.7
54 | IRHAILAAGDLYSRR | 5.5 | 1.4
55 | ISDFRAAIANYHYDA | 216.2 | 18.6
56 | IVINNAGILNDEKWE | 10.8 | 4.3
57 | KAAVHLLVAVKASKE | 4.4 | 1.4
58 | KAHSMRNSASMDLSS | 16.4 | 4.3
59 | KAIEEDLKHFNLKYE | 5.7 | 2.9
60 | KAIFIKCDVTNIPEF | 9.3 | 7.1
61 | KALQNAESEVAALNR | 6.0 | 1.4
62 | KCHLTNIACLLHNKY | 22.6 | 5.7
63 | KDDWENLEIDMIVDT | 8.4 | 2.9

Row | Sequence | Average Magnitude of Response | Response Rate per Subject
64 | KEFANVVRVVRHTSK | 3.3 | 2.9
65 | KELVEKYGKGKAIFI | 3.4 | 2.9
66 | KFEGNKFTIDYNDKG | 14.2 | 4.3
67 | KFTIDYNDKGKAFSA | 32.0 | 11.4
68 | KIGEYKNMIAEGIID | 6.2 | 1.4
69 | KKLQFTYSESLDLDD | 4.2 | 2.9
70 | KLAASDSKSLLRKYL | 43.8 | 7.1
71 | KLGDKEMIQHYTLDQ | 5.0 | 1.4
72 | KLYKMAVAFMLAYPY | 15.8 | 7.1
73 | KNMTYVNTSLVLAFS | 8.4 | 2.9
74 | KNRTTIRGRTKFEGN (listed as Blattella germanica) | 81.7 | 2.9
75 | KQLKVSQIMEAARKL | 4.2 | 4.3
76 | KTPVLEIDGKQTHQS (listed as Blattella germanica) | 57.0 | 14.3
77 | KTPVLSVNATVVRLQ | 3.2 | 1.4
78 | KVFLKNYLVGNAQFK | 6.4 | 1.4
79 | KVIDLLLSLYLDQNE | 3.6 | 7.1
80 | LDYLNHMAKEDLVAN | 13.0 | 10.0
81 | LGHTVCLSGFMGIDL | 3.2 | 2.9
82 | LIPVDQIIAIATDYL | 9.8 | 1.4
